Results reported in patent US20230320956A1, “DIARYLALKANE COMPOUNDS AND COMPOSITIONS FOR USE WITH SKIN AGING AND METHODS OF PRODUCTION THEREOF” (Unigen, Inc., priority 2022, published 2023).

Test system: keratinocytes (Hacat cell line)
Assay: Global gene expression (RNA-seq) in treated keratinocytes
Format: cell-based, human
Details: for Fold change (gene expression): 40 μM vs untreated; for Fold Enrichment / Number of Genes Differentially Expressed: 40 μM
Method: To determine specific expression changes dimethoxytolyl propylresorcinol exerted on human keratinocyte aging genes, keratinocytes (Hacat cell line) were treated dimethoxytolyl propylresorcinol at 40 μM and gene expression was analyzed by RNA-seq. Differential gene expression was compared to untreated keratinocytes and cells treated with 40 μM Retinol A to find genes involved in aging. […] Retinol was chosen as a positive control because retinoids have been described as having effective anti-aging and anti-wrinkle effects (Zasada M, 2019). We directly compared the effects of Retinol on keratinocytes with the same concentration of dimethoxytolyl propylresorcinol.

[1] = Gene Cluster Activation of MAPK activity
[2] = Gene Cluster Calcium ion binding
[3] = Gene Cluster Cell-cell signaling
[4] = Gene Cluster Cellular response to lipopolysaccharide
[5] = Gene Cluster Cellular response to retinoic acid
[6] = Gene Cluster Epidermis development
[7] = Gene Cluster Epithelial cell differentiation
[8] = Gene Cluster Extracellular exosome
[9] = Gene Cluster Extracellular matrix organization
[10] = Gene Cluster Extracellular region
[11] = Gene Cluster Extracellular space
[12] = Gene Cluster Growth factor activity
[13] = Gene Cluster Inflammatory response
[14] = Gene Cluster Intermediate filament cytoskeleton organization
[15] = Gene Cluster Negative regulation of ERK1 and ERK2 cascade
[16] = Gene Cluster Negative regulation of cell proliferation
[17] = Gene Cluster Negative regulation of endopeptidase activity
[18] = Gene Cluster Neutrophil chemotaxis
[19] = Gene Cluster O-glycan processing
[20] = Gene Cluster Osteoblast differentiation
[21] = Gene Cluster Positive regulation of angiogenesis
[22] = Gene Cluster Positive regulation of cell migration
[23] = Gene Cluster Positive regulation of cell proliferation
[24] = Gene Cluster Positive regulation of gene expression
[25] = Gene Cluster Positive regulation of smooth muscle cell proliferation
[26] = Gene Cluster Proteinaceous extracellular matrix
[27] = Gene Cluster Transforming growth factor beta receptor binding

CC1=C(/C=C/C(C)=C/C=C/C(C)=C/CO)C(C)(C)CCC1 [Retinol, reference compound]
Fold change (gene expression) (AHR - Aryl hydrocarbon receptor, Oxidative stress): No effect
Fold change (gene expression) (ANGPTL4 - Angiopoietin-like 4, Negative regulation of growth/Angiogenesis): 2.77 fold
Fold change (gene expression) (ANOS1 - Anosmin 1, ECM/Nerve adhesion): 0.55 fold
Fold change (gene expression) (BMP4 - Bone morphogenetic protein 4, Growth): 0.51 fold
Fold change (gene expression) (C3orf33 - Chromosome 3 open reading frame 33, Negative regulation of growth): 2.24 fold
Fold change (gene expression) (CD1D - CD1d molecule, ECM): 0.32 fold
Fold change (gene expression) (CDK5R1 - Cyclin-dependent kinase 5 activator 1, Growth/Skin barrier): No effect
Fold change (gene expression) (CEACAM1 - CEA cell adhesion molecule 1, Cell adhesion): 3.00 fold
Fold change (gene expression) (COL1A1 - Collagen type 1, ECM): No effect
Fold change (gene expression) (COL5A1 - Collagen type V alpha 1 chain, ECM): 0.27 fold
Fold change (gene expression) (CRISPLD2 - Cysteine-rich secretory protein LCCL domain-containing 2, ECM): 1.98 fold
Fold change (gene expression) (CXCL3 - C-X-C motif chemokine ligand 3, Immune signaling): 2.60 fold
Fold change (gene expression) (CYP1A1 - Cytochrome P450 family 1 subfamily A member 1, Drug metabolism): 2.30 fold
Fold change (gene expression) (ECM1 - Extracellular matrix protein 1, ECM): No effect
Fold change (gene expression) (EPHA4 - Ephrin type-A receptor 4, Cell adhesion, cell communication): 0.55 fold
Fold change (gene expression) (EREG - Epiregulin, Growth): No effect
Fold change (gene expression) (FABP5 - Fatty acid binding protein 5, Skin barrier): No effect
Fold change (gene expression) (FGF1 - Fibroblast growth factor 1, Growth): 0.45 fold
Fold change (gene expression) (FGF11 - Fibroblast growth factor 11, Growth): 0.50 fold
Fold change (gene expression) (FLRT2 - Fibronectin leucine-rich transmembrane protein 2, ECM): 0.58 fold
Fold Enrichment [1]: 3.15 fold
Number of Genes Differentially Expressed [1]: 7
Fold Enrichment (Gene Cluster Angiogenesis): 2.37 fold
Number of Genes Differentially Expressed (Gene Cluster Angiogenesis): 11
Fold Enrichment [2]: 2.04 fold
Number of Genes Differentially Expressed [2]: 30
Fold Enrichment (Gene Cluster Cell development): 4.81 fold
Number of Genes Differentially Expressed (Gene Cluster Cell development): 4
Fold Enrichment (Gene Cluster Cell surface): 1.84 fold
Number of Genes Differentially Expressed (Gene Cluster Cell surface): 20
Fold Enrichment [3]: 2.46 fold
Number of Genes Differentially Expressed [3]: 13
Fold Enrichment [4]: 4.26 fold
Number of Genes Differentially Expressed [4]: 10
Fold Enrichment [5]: 4.12 fold
Number of Genes Differentially Expressed [5]: 6
Fold Enrichment [6]: 4.53 fold
Number of Genes Differentially Expressed [6]: 8
Fold Enrichment [7]: 4.81 fold
Number of Genes Differentially Expressed [7]: 7
Fold Enrichment [8]: 1.47 fold
Number of Genes Differentially Expressed [8]: 83
Fold Enrichment [9]: 3.19 fold
Number of Genes Differentially Expressed [9]: 13
Fold Enrichment [10]: 1.73 fold
Number of Genes Differentially Expressed [10]: 56
Fold Enrichment [11]: 2.48 fold
Number of Genes Differentially Expressed [11]: 67
Fold Enrichment [12]: 3.00 fold
Number of Genes Differentially Expressed [12]: 10
Fold Enrichment (Gene Cluster Growth): 6.87 fold
Number of Genes Differentially Expressed (Gene Cluster Growth): 4
Fold Enrichment (Gene Cluster Heparin binding): 4.86 fold
Number of Genes Differentially Expressed (Gene Cluster Heparin binding): 16
Fold Enrichment [13]: 2.54 fold
Number of Genes Differentially Expressed [13]: 20
Fold Enrichment [14]: 9.62 fold
Number of Genes Differentially Expressed [14]: 3
Fold Enrichment [15]: 5.81 fold
Number of Genes Differentially Expressed [15]: 7
Fold Enrichment [16]: 2.43 fold
Number of Genes Differentially Expressed [16]: 20
Fold Enrichment [17]: 2.78 fold
Number of Genes Differentially Expressed [17]: 7
Fold Enrichment [18]: 3.65 fold
Number of Genes Differentially Expressed [18]: 5
Fold Enrichment [19]: 4.00 fold
Number of Genes Differentially Expressed [19]: 5
Fold Enrichment [20]: 3.24 fold
Number of Genes Differentially Expressed [20]: 7
Fold Enrichment [21]: 3.35 fold
Number of Genes Differentially Expressed [21]: 8
Fold Enrichment [22]: 3.40 fold
Number of Genes Differentially Expressed [22]: 13
Fold Enrichment [23]: 1.86 fold
Number of Genes Differentially Expressed [23]: 18
Fold Enrichment [24]: 2.20 fold
Number of Genes Differentially Expressed [24]: 12
Fold Enrichment [25]: 4.81 fold
Number of Genes Differentially Expressed [25]: 6
Fold Enrichment [26]: 4.27 fold
Number of Genes Differentially Expressed [26]: 23
Fold Enrichment (Gene Cluster Response to drug): 2.37 fold
Number of Genes Differentially Expressed (Gene Cluster Response to drug): 15
Fold Enrichment [27]: 5.79 fold
Number of Genes Differentially Expressed [27]: 5
Fold change (gene expression) (HAS2 - hyaluronan synthase 2, ECM): No effect
Fold change (gene expression) (HAS3 - hyaluronan synthase 3, ECM): No effect
Fold change (gene expression) (HBEGF - Heparin-binding EGF-like growth factor, Growth): No effect
Fold change (gene expression) (HIF1A - Hypoxia-inducible factor 1 subunit alpha, Oxidative stress): No effect
Fold change (gene expression) (HMOX1 - Heme oxygenase 1, Oxidative stress): No effect
Fold change (gene expression) (HS3ST1 - Heparan sulfate-glucosamine 3-sulfotransferase 1, ECM): 1.48 fold
Fold change (gene expression) (IL1A - Interleukin 1 alpha, Cytokine signaling): No effect
Fold change (gene expression) (IL1RL1 - Interleukin 1 receptor-like 1, Immune signaling): 3.13 fold
Fold change (gene expression) (ITGA6 - Integrin subunit alpha 6, Cell adhesion): 0.59 fold
Fold change (gene expression) (ITGBL1 - Integrin subunit beta-like 1, Cell adhesion): No effect
Fold change (gene expression) (KIF13A - Kinesin family member 13A, Cytoskeleton/secretion): 0.68 fold
Fold change (gene expression) (LAMA3 - Laminin subunit alpha 3, ECM): No effect
Fold change (gene expression) (LAMC2 - Laminin subunit gamma 2, ECM): 0.71 fold
Fold change (gene expression) (NGF - Nerve growth factor, Growth): No effect
Fold change (gene expression) (NID2 - Nidogen 2 precursor, ECM): 0.79 fold
Fold change (gene expression) (OCLN - Occludin, Skin barrier): No effect
Fold change (gene expression) (OLFM4 - Olfactomedin 4, ECM): 0.28 fold
Fold change (gene expression) (PARP15 - Poly (ADP-Ribose) polymerase family member 15, DNA damage repair/transcription regulation): No effect
Fold change (gene expression) (PI3 - Peptidase inhibitor 3, elastase inhibitor, Elastin genes): No effect
Fold change (gene expression) (PSAPL1 - Prosaposin-like 1, ECM): 0.32 fold
Fold change (gene expression) (PSG5 - Pregnancy specific beta-1-glycoprotein 5, ECM): 0.37 fold
Fold change (gene expression) (PTPRR - Protein tyrosine phosphatase receptor type R, Negative regulation of growth): 2.31 fold
Fold change (gene expression) (RAPGEF3 - Rap guanine nucleotide exchange factor 3, Plasma membrane fusion/cytoskeleton): 1.81 fold
Fold change (gene expression) (SELE - E-Selectin, Cell adhesion): No effect
Fold change (gene expression) (SEMA3D - Semaphorin 3D, ECM/Nerve growth): 0.50 fold
Fold change (gene expression) (SERPINB2 - Serpin family B member 2, Skin barrier): 0.70 fold
Fold change (gene expression) (SERPINB4 - Serpin family B member 4, Skin barrier): No effect
Fold change (gene expression) (SIRT1 - Sirtuin 1, Transcription regulation): No effect
Fold change (gene expression) (SIRT7 - Sirtuin 7, Transcription regulation): No effect
Fold change (gene expression) (SOD2 - Superoxide dismutase 2, Oxidative stress): No effect
Fold change (gene expression) (TFP12 - Tissue factor pathway inhibitor 2, ECM): 2.46 fold
Fold change (gene expression) (TGFB1 - Transforming growth factor beta 1, TGF-β signaling): No effect
Fold change (gene expression) (TLR4 - Toll-like receptor 4, Immune signaling): 2.67 fold
Fold change (gene expression) (TNC - Tenascin C, ECM/Nerve growth): 0.14 fold
Fold change (gene expression) (TP73 - Tumor protein P73, Growth): 0.38 fold
Fold change (gene expression) (TXNRD1 - Thioredoxin reductase 1, Oxidative stress): 1.45 fold
Fold change (gene expression) (UGCG - UDP-glucose ceramide glucosyltransferase, Lipid metabolism and transport): 1.24 fold
Fold change (gene expression) (VIT - Vitrin, ECM): 0.14 fold
